Where two headings read alike, the source gives them in different places.
Key:
[1] = test system: CHEAL: lambsquarters (Chenopodium album); test: Post-Emergent Test I herbicidal activity; format: in vivo; details: for pest or weed control at 140 g/ha: Table 3, 140 g ai/ha
How it was run: (§1)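 Visual injury ratings (0 = none, 100 = complete kill) taken 14 d after treatment underlie these values, with GR20, GR50 and GR80 obtained by probit analysis. Plants were treated post-emergence at the first or second true-leaf stage by overhead spray at 187 L/ha.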

ZEAMX: corn (Zea mays) = test: Post-Emergent Test I herbicidal activity; format: in vivo
How it was run: as §1

[2] = test system: ORYSA: rice (Oryza sativa); test: Post-Emergent Test I herbicidal activity; format: in vivo; details: post-emergence, 336 h, Table 3, 140 g ai/ha, read-out: Visual Growth Reduction (%)-14 Days after Application ORYSA
How it was run: (§2)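 Greenhouse-grown seedlings (peat-based mix, pH 6.0–6.8; ~15 h photoperiod, 23–29 °C day) were sprayed post-emergence at first/second true-leaf stage with compound in acetone/DMSO/aqueous crop-oil–surfactant carrier at 187 L/ha, using a twofold rate series. Injury was scored visually after 14 d (0–100%); GR20/GR50/GR80 derived by probit analysis.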

[3] = test system: ABUTH: velvetleaf (Abutilon theophrasti); test: Post-Emergent Test I herbicidal activity; format: in vivo
How it was run: as §1

[4] = test system: CYPES: yellow nutsedge (Cyperus esculentus); test: Post-Emergent Test I herbicidal activity; format: in vivo; details: post-emergence, 336 h, Table 3, 140 g ai/ha, read-out: Visual Growth Reduction (%)-14 Days after Application CYPES
How it was run: as §1

[5] = test system: EPHHL: wild poinsettia (Euphorbia heterophylla); test: Post-Emergent Test I herbicidal activity; format: in vivo; details: post-emergence, 336 h, Table 3, 140 g ai/ha, read-out: Visual Growth Reduction (%)-14 Days after Application EPHHL
How it was run: as §1

[6] = test system: ECHCG: barnyardgrass (Echinochloa crus-galli); test: Post-Emergent Test I herbicidal activity; format: in vivo; details: post-emergence, 336 h, Table 3, 140 g ai/ha, read-out: Visual Growth Reduction (%)-14 Days after Application ECHCG
How it was run: as §2

[7] = Chenopodium album, post-emergence, 336 h, read-out: Visual Growth Reduction (%)-14 Days after Application CHEAL
[8] = Table 4, growth reduction of 20% of plant growth, 14 days after application, probit analysis
[9] = Table 4, growth reduction of 50% of plant growth, 14 days after application, probit analysis
[10] = Table 4, growth reduction of 80% of plant growth, 14 days after application, probit analysis
[11] = Zea mays, post-emergence, 336 h, Table 3, 140 g ai/ha, read-out: Visual Growth Reduction (%)-14 Days after Application ZEAMX
[12] = Abutilon theophrasti, post-emergence, 336 h, Table 3, 140 g ai/ha, read-out: Visual Growth Reduction (%)-14 Days after Application ABUTH

Q: For `COc1c(N)cc(-c2ccc(Cl)cc2)nc1C(=O)O` [Compound 46], which pest or weed control at 140 g/ha [1, 7] is on record?
A: 100%

Q: And the pest or weed control at 17.5 g/ha ([1]; Chenopodium album, post-emergence, 336 h, Table 4, 17.5 g ai/ha, read-out: Visual Growth Reduction (%)-14 Days after Application CHEAL)?
A: 90%

Q: And the pest or weed control at 35 g/ha ([1]; Chenopodium album, post-emergence, 336 h, Table 4, 35 g ai/ha, read-out: Visual Growth Reduction (%)-14 Days after Application CHEAL)?
A: 95%

Q: What about the pest or weed control at 70 g/ha ([1]; Chenopodium album, post-emergence, 336 h, Table 4, 70 g ai/ha, read-out: Visual Growth Reduction (%)-14 Days after Application CHEAL) of the same molecule?
A: 100%

Q: What about the pest or weed control at 280 g/ha ([1]; Chenopodium album, post-emergence, 336 h, Table 4, 280 g ai/ha, read-out: Visual Growth Reduction (%)-14 Days after Application CHEAL) of the same molecule?
A: 100%

Q: What about the “Visual Growth Reduction (%)-14 Days after Application CHEAL” value ([1]; Table 4, 140 g ai/ha) of the same molecule?
A: 100%

Q: What about the “GR20 CHEAL” value [1, 8] of the same molecule?
A: <17.5 g ai/ha

Q: What about the “GR50 CHEAL” value [1, 9] of the same molecule?
A: <17.5 g ai/ha

Q: And the “GR80 CHEAL” value [1, 10]?
A: <17.5 g ai/ha

Q: And the “GR20 ZEAMX” value (ZEAMX: corn (Zea mays); [8])?
A: >280 g ai/ha

Q: What about the “GR50 ZEAMX” value (ZEAMX: corn (Zea mays); [9]) of the same molecule?
A: >280 g ai/ha

Q: And the “GR80 ZEAMX” value (ZEAMX: corn (Zea mays); [10])?
A: >280 g ai/ha

Q: And the pest or weed control at 140 g/ha (ZEAMX: corn (Zea mays); [11])?
A: 0%

Q: What about the pest or weed control at 17.5 g/ha (ZEAMX: corn (Zea mays); Zea mays, post-emergence, 336 h, Table 4, 17.5 g ai/ha, read-out: Visual Growth Reduction (%)-14 Days after Application ZEAMX) of the same molecule?
A: 0%

Q: What about the pest or weed control at 35 g/ha (ZEAMX: corn (Zea mays); Zea mays, post-emergence, 336 h, Table 4, 35 g ai/ha, read-out: Visual Growth Reduction (%)-14 Days after Application ZEAMX) of the same molecule?
A: 0%

Q: And the pest or weed control at 70 g/ha (ZEAMX: corn (Zea mays); Zea mays, post-emergence, 336 h, Table 4, 70 g ai/ha, read-out: Visual Growth Reduction (%)-14 Days after Application ZEAMX)?
A: 0%

Q: What about the pest or weed control at 140 g/ha (ZEAMX: corn (Zea mays); Zea mays, post-emergence, 336 h, Table 4, 140 g ai/ha, read-out: Visual Growth Reduction (%)-14 Days after Application ZEAMX) of the same molecule?
A: 0%

Q: And the pest or weed control at 280 g/ha (ZEAMX: corn (Zea mays); Zea mays, post-emergence, 336 h, Table 4, 280 g ai/ha, read-out: Visual Growth Reduction (%)-14 Days after Application ZEAMX)?
A: 0%

Q: What about the pest or weed control at 140 g/ha [2] of the same molecule?
A: 0%

Q: What about the pest or weed control at 140 g/ha [3, 12] of the same molecule?
A: 100%

Q: And the pest or weed control at 17.5 g/ha ([3]; Abutilon theophrasti, post-emergence, 336 h, Table 4, 17.5 g ai/ha, read-out: Visual Growth Reduction (%)-14 Days after Application ABUTH)?
A: 80%

Q: What about the pest or weed control at 35 g/ha ([3]; Abutilon theophrasti, post-emergence, 336 h, Table 4, 35 g ai/ha, read-out: Visual Growth Reduction (%)-14 Days after Application ABUTH) of the same molecule?
A: 85%

Q: And the pest or weed control at 70 g/ha ([3]; Abutilon theophrasti, post-emergence, 336 h, Table 4, 70 g ai/ha, read-out: Visual Growth Reduction (%)-14 Days after Application ABUTH)?
A: 95%

Q: What about the pest or weed control at 140 g/ha ([3]; Abutilon theophrasti, post-emergence, 336 h, Table 4, 140 g ai/ha, read-out: Visual Growth Reduction (%)-14 Days after Application ABUTH) of the same molecule?
A: 100%

Q: What about the pest or weed control at 280 g/ha ([3]; Abutilon theophrasti, post-emergence, 336 h, Table 4, 280 g ai/ha, read-out: Visual Growth Reduction (%)-14 Days after Application ABUTH) of the same molecule?
A: 100%

Q: What about the “GR20 ABUTH” value [3, 8] of the same molecule?
A: <17.5 g ai/ha

Q: What about the “GR50 ABUTH” value [3, 9] of the same molecule?
A: <17.5 g ai/ha

Q: And the “GR80 ABUTH” value [3, 10]?
A: 19.7 g ai/ha

Q: And the pest or weed control at 140 g/ha [4]?
A: 0%

Q: And the pest or weed control at 140 g/ha [5]?
A: 100%

Q: And the pest or weed control at 140 g/ha [6]?
A: 15%

Q: And the melting point?
A: 165 °C

Q: Which pest or weed control at 140 g/ha [1, 7] does the source give for `COc1c(C(=O)OCc2ccccc2)nc(-c2ccc(Cl)c(OC)c2F)c(F)c1N` [Compound 66, benzyl 4-amino-6-(4-chloro-2-fluoro-3-methoxyphenyl)-5-fluoro-3-methoxypicolinate] here?
A: 100%

Q: And the pest or weed control at 140 g/ha (ZEAMX: corn (Zea mays); [11])?
A: 80%

Q: And the pest or weed control at 140 g/ha [2]?
A: 0%

Q: And the pest or weed control at 140 g/ha [3, 12]?
A: 100%

Q: And the pest or weed control at 140 g/ha [4]?
A: 100%

Q: And the pest or weed control at 140 g/ha [5]?
A: 100%

Q: What about the pest or weed control at 140 g/ha [6] of the same molecule?
A: 60%

Q: And the melting point?
A: 118 °C

— patent US9518018B2, “3-alkoxy, thioalkyl and amino-4-amino-6-(substituted)picolinates and their use as herbicides” (Dow AgroSciences LLC, priority 2011, dated 2016)
